From US10414763B2 (CANCER RESEARCH TECHNOLOGY LIMITED, priority 2014, dated 2019)

Target: T1, full-length human PKCι (Homo sapiens, UniProt P41743)
T1 construct: Recombinant, full-length human PKCι expressed in Sf21 insect cells is also commercially available; purchased EMD Millipore; host or cells: Sf21 insect cells (baculovirus)
T1 sequence (P41743 1-596): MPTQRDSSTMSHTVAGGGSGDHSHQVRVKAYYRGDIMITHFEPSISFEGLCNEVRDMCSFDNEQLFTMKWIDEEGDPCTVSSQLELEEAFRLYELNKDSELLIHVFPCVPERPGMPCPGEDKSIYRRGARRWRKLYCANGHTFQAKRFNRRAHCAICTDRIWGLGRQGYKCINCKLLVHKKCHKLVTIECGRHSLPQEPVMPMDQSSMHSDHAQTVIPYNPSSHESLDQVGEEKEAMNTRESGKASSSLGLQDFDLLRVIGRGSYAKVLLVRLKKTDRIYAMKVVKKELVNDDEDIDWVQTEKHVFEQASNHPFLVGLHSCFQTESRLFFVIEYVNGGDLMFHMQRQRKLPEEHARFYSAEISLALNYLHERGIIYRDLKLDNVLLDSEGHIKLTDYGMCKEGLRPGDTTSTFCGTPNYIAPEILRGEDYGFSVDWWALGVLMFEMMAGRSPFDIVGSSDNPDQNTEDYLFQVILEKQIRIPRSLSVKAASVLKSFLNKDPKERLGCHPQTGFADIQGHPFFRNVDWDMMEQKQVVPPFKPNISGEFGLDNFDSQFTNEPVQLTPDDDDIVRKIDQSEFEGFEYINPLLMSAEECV
Experiment: PKCι IC50 IMAP fluorescence polarisation assay, full-length enzyme, 150 μM ATP
Format: biochemical
Conditions: read-out: IC50 in IMAP assay against full length PKCi at 150 μM ATP
Method in brief: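 IMAP fluorescence polarisation kinase assay: 15 pM baculovirus-expressed human PKCiota with 100 nM FAM-pseudosubstrate peptide and 150 μM ATP, 1 h at 25 °C. IMAP detection reagent then 2 h at 25 °C before FP measurement. Inhibition referenced to no-compound and no-enzyme controls for IC50 fitting.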

Row | SMILES | IC50
1 | CC1(C)CNCC[C@@H]1Nc1nc(-c2ccnc(Nc3nc4ccc(F)cc4o3)c2)nc2cncc(C3CCC3)c12 [Example 338, N-[4-[5-Cyclobutyl-4-[[(4S)-3,3-dimethyl-4-piperidyl]amino]pyrido [3,4-d]pyrimidin-2-yl]-2-pyridyl]-6-fluoro-1,3-benzoxazol-2-amine] | < 100 nM
2 | CC1(C)CNCC[C@@H]1Nc1nc(-c2ccnc(Nc3ncccc3Cl)c2)nc2cncc(C3CC3)c12 [Example 339, 2-[2-[(3-Chloro-2-pyridyl)amino]-4-pyridyl]-5-cyclopropyl-N-[(4S)-3,3-dimethyl-4-piperidyl]pyrido[3,4-d]pyrimidin-4-amine] | 100 to 1000 nM
3 | CC1(C)CNCC[C@@H]1Nc1nc(-c2ccnc(Nc3ncc(Cl)cc3Cl)c2)nc2cncc(C3CC3)c12 [Example 340, 5-Cyclopropyl-2-[2-[(3,5-dichloro-2-pyridyl)amino]-4-pyridyl]-N-[(4S)-3,3-dimethyl-4-piperidyl]pyrido[3,4-d]pyrimidin-4-amine] | < 100 nM
4 | FC(F)(F)c1cncc2nc(-c3ccnc4[nH]c5ccccc5c34)nc(NC3CCNCC3)c12 [Example 348, Piperidin-4-yl-[2-(9H-pyrido[2,3-b]indol-4-yl)-5-trifluoromethyl-pyrido[3,4-d]pyrimidin-4-yl]-amine] | < 100 nM
5 | CC1(C)CNCC[C@@H]1Nc1nc(-c2ccnc3[nH]c(C(=O)NC4CCCCC4)cc23)nc2cncc(C3CC3)c12 [Example 355, 4-[5-Cyclopropyl-4-((S)-3,3-dimethyl-piperidin-4-ylamino)-pyrido[3,4-d]pyrimidin-2-yl]-1H-pyrrolo[2,3-b]pyridine-2-carboxylic acid cyclohexylamide] | < 100 nM
6 | c1cncc(-c2cc3c(-c4nc(N5CCC6CNCCC65)c5c(C6CC6)cncc5n4)ccnc3[nH]2)c1 (centres unmarked) [Example 356, 5-Cyclopropyl-4-(octahydro-pyrrolo[3,2-c]pyridin-1-yl)-2-(2-pyridin-3-yl-1H-pyrrolo[2,3-b]pyridin-4-yl)-pyrido[3,4-d]pyrimidine] | < 100 nM
7 | COCc1ccccc1-c1cc2c(-c3nc(N[C@H]4CCNCC4(C)C)c4c(C5CC5)cncc4n3)ccnc2[nH]1 [Example 357, {5-Cyclopropyl-2-[2-(2-methoxymethyl-phenyl)-1H-pyrrolo[2,3-b]pyridin-4-yl]-pyrido[3,4-d]pyrimidin-4-yl}-((S)-3,3-dimethyl-piperidin-4-yl)-amine] | < 100 nM
8 | Fc1ccc(Cl)c(-c2cc3c(-c4nc(N5CCOC6CNCC65)c5c(C6CC6)cncc5n4)ccnc3[nH]2)c1 (centres unmarked) [Example 360, 2-[2-(2-Chloro-5-fluoro-phenyl)-1H-pyrrolo[2,3-b]pyridin-4-yl]-5-cyclopropyl-4-(hexahydro-pyrrolo[3,4-b][1,4]oxazin-4-yl)-pyrido[3,4-d]pyrimidine] | < 100 nM
9 | CC1(C)CNCC[C@@H]1Nc1nc(-c2ccnc3[nH]c(-c4cc(F)ccc4F)cc23)nc2cncc(C3CC3)c12 [Example 361, {5-Cyclopropyl-2-[2-(2,5-difluoro-phenyl)-1H-pyrrolo[2,3-b]pyridin-4-yl]-pyrido[3,4-d]pyrimidin-4-yl}-((S)-3,3-dimethyl-piperidin-4-yl)-amine] | < 100 nM
10 | Cc1cncc(-c2cc3c(-c4nc(N[C@H]5CCNCC5(C)C)c5c(C6CC6)cncc5n4)ccnc3[nH]2)c1 [Example 362, {5-Cyclopropyl-2-[2-(5-methyl-pyridin-3-yl)-1H-pyrrolo[2,3-b]pyridin-4-yl]-pyrido[3,4-d]pyrimidin-4-yl}-((S)-3,3-dimethyl-piperidin-4-yl)-amine] | < 100 nM
11 | CC1(C)CNCC[C@@H]1Nc1nc(-c2ccnc3[nH]c(C(=O)N4CCCCCC4)cc23)nc2cncc(C3CC3)c12 [Example 363, Azepan-1-yl-{4-[5-cyclopropyl-4-((S)-3,3-dimethyl-piperidin-4-ylamino)-pyrido[3,4-d]pyrimidin-2-yl]-1H-pyrrolo[2,3-b]pyridin-2-yl}-methanone] | < 100 nM
12 | Cc1cnc(F)c(-c2cc3c(-c4nc(N[C@H]5CCNCC5(C)C)c5c(C6CC6)cncc5n4)ccnc3[nH]2)c1 [Example 364, {5-Cyclopropyl-2-[2-(2-fluoro-5-methyl-pyridin-3-yl)-1H-pyrrolo[2,3-b]pyridin-4-yl]-pyrido[3,4-d]pyrimidin-4-yl}-((S)-3,3-dimethyl-piperidin-4-yl)-amine] | < 100 nM
13 | CC1(C)CNCC[C@@H]1Nc1nc(-c2ccnc3[nH]c(-c4cncc(F)c4)cc23)nc2cncc(C3CC3)c12 [Example 365, {5-Cyclopropyl-2-[2-(5-fluoro-pyridin-3-yl)-1H-pyrrolo[2,3-b]pyridin-4-yl]-pyrido[3,4-d]pyrimidin-4-yl}-((S)-3,3-dimethyl-piperidin-4-yl)-amine] | < 100 nM
14 | CC1(C)CNCC[C@@H]1Nc1nc(-c2ccnc3[nH]c(C(=O)N4CCC4)cc23)nc2cncc(C3CC3)c12 [Example 366, Azetidin-1-yl-[4-[5-cyclopropyl-4-[[(4S)-3,3-dimethyl-4-piperidyl]amino]pyrido [3,4-d]pyrimidin-2-yl]-1H-pyrrolo[2,3-b]pyridin-2-yl]methanone] | < 100 nM
15 | CC1(C)CNCC[C@@H]1Nc1nc(-c2ccnc3[nH]c(-c4cccnc4)cc23)nc2cncc(C3CCC3)c12 [Example 367, [5-Cyclobutyl-2-(2-pyridin-3-yl-1H-pyrrolo[2,3-b]pyridin-4-yl)-pyrido[3,4-d]pyrimidin-4-yl]-((S)-3,3-dimethyl-piperidin-4-yl)-amine] | < 100 nM
16 | COc1ccc(Cl)c(-c2cc3c(-c4nc(N[C@H]5CCNCC5(C)C)c5c(C6CC6)cncc5n4)ccnc3[nH]2)c1 [Example 368, {2-[2-(2-Chloro-5-methoxy-phenyl)-1H-pyrrolo[2,3-b]pyridin-4-yl]-5-cyclopropyl-pyrido[3,4-d]pyrimidin-4-yl}-((S)-3,3-dimethyl-piperidin-4-yl)-amine] | < 100 nM
17 | c1cncc(-c2cc3c(-c4nc(N[C@H]5CCCNCC5)c5c(C6CC6)cncc5n4)ccnc3[nH]2)c1 [Example 369, (S)-Azepan-4-yl-[5-cyclopropyl-2-(2-pyridin-3-yl-1H-pyrrolo[2,3-b]pyridin-4-yl)-pyrido[3,4-d]pyrimidin-4-yl]-amine] | < 100 nM
18 | CC1(C)CNCC[C@@H]1Nc1nc(-c2ccnc3[nH]c(-c4cncc(F)c4)cc23)nc2cncc(C3CCC3)c12 [Example 370, {5-Cyclobutyl-2-[2-(5-fluoro-pyridin-3-yl)-1H-pyrrolo[2,3-b]pyridin-4-yl]-pyrido[3,4-d]pyrimidin-4-yl}-((S)-3,3-dimethyl-piperidin-4-yl)-amine] | < 100 nM
19 | CC1(C)CNCC[C@@H]1Nc1nc(-c2ccnc3[nH]c(-c4ccncc4)cc23)nc2cncc(C3CC3)c12 [Example 371, 5-Cyclopropyl-N-[(4S)-3,3-dimethyl-4-piperidyl]-2-[2-(4-pyridyl)-1H-pyrrolo[2,3-b]pyridin-4-yl]pyrido[3,4-d]pyrimidin-4-amine] | < 100 nM
20 | CC1(C)CNCC[C@@H]1Nc1nc(-c2ccnc3[nH]c(-c4cccnc4)cc23)nc2cncc(C(F)(F)F)c12 [Example 372, N-[(4S)-3,3-dimethyl-4-piperidyl]-2-[2-(3-pyridyl)-1H-pyrrolo[2,3-b]pyridin-4-yl]-5-(trifluoromethyl) pyrido[3,4-d]pyrimidin-4-amine] | < 100 nM
21 | c1ccc2c(c1)oc1nccc(-c3nc(N4CCNCC4)c4c(C5CC5)cncc4n3)c12 [Example 373, 4-(5-Cyclopropyl-4-piperazin-1-yl-pyrido[3,4-d]pyrimidin-2-yl)-benzofuro[2,3-b]pyridine] | 1000 to 10000 nM
22 | c1ccc2c(c1)oc1nccc(-c3nc(NC4CCNCC4)c4c(C5CC5)cncc4n3)c12 [Example 374, 2-(benzofuro[2,3-b]pyridin-4-yl)-5-cyclopropyl-N-(4-piperidyl)pyrido[3,4-d]pyrimidin-4-amine] | 1000 to 10000 nM
23 | CN(c1nc(-c2ccnc3[nH]c4ccccc4c23)nc2cncc(C3CCC3)c12)C1CC2NC(=O)OC2C1 (centres unmarked) [Example 375, 5-{[5-Cyclobutyl-2-(9H-pyrido[2,3-b]indol-4-yl)-pyrido[3,4-d]pyrimidin-4-yl]-methyl-amino}-hexahydro-cyclopentoxazol-2-one] | 100 to 1000 nM
24 | O=C1NC2CC(Nc3nc(-c4ccnc5[nH]c6ccccc6c45)nc4cncc(C5CCC5)c34)CC2O1 (centres unmarked) [Example 376, 5-[5-Cyclobutyl-2-(9H-pyrido[2,3-b]indol-4-yl)-pyrido[3,4-d]pyrimidin-4-ylamino]-hexahydro-cyclopentoxazol-2-one] | 1000 to 10000 nM
25 | NC(=O)C1CC(Nc2nc(-c3ccnc4[nH]c5ccccc5c34)nc3cncc(C4CCC4)c23)CC1N (centres unmarked) [Example 377, 2-amino-4-[[5-cyclobutyl-2-(9H-pyrido[2,3-b]indol-4-yl)pyrido[3,4-d]pyrimidin-4-yl]amino]cyclopentane carboxamide] | 100 to 1000 nM
26 | CC1(C)CNCC[C@@H]1Nc1nc(-c2ccnc(Nc3ccc4ccccc4n3)c2)nc2cncc(C3CC3)c12 [Example 378, {5-Cyclopropyl-2-[2-(quinolin-2-ylamino)-pyridin-4-yl]-pyrido[3,4-d]pyrimidin-4-yl}-((S)-3,3-dimethyl-piperidin-4-yl)-amine] | < 100 nM
